Data set [1] has as its target T1, E. coli glucosamine synthase GlmS*54 (Escherichia coli, UniProt P17169, A39T/G472S/R250C).
T1 construct: made in house; host or cells: E. coli 7107-18 (printed '7017-18'; T7-glmS*54 integrated at galK) and strains derived from it; crude extract
As to the kind of experiment: Effects of phosphorylated sugars on glucosamine synthase. The class given is biochemical. Here is the method: Glucosamine synthetase activity was examined in the presence of various phosphorylated sugars. Crude enzyme extracts was prepared from cells of 7017-18 grown in shake flasks for 24 hours with lactose induction.

Substrate in data set [2]: O=P(O)(O)OC[C@H]1OC(O)(CO)[C@@H](O)[C@@H]1O
As to the kind of experiment: GlmS inhibition and Michaelis-Menten kinetics. The format is biochemical, Escherichia coli. Here is the method:
Different glucosamine synthetase enzymes, including native B. subtillus GlmS, native E. coli GlmS and mutant E. coli GlmS, were studied in vitro. Cells of various E. coli strains were grown in the M9A medium, harvested, and frozen. Cells extracts were prepared and the glucosamine synthetases were characterized and compared.
Enzyme sensitivities to the reaction product glucosamine-6-P were examined. […] This figure highlights the dramatic difference between the wild type GlmS and these mutant GlmS strains.
The Mutants 2123-54 and the B. subtilis enzyme have higher Ki values (Table 6). Measured Ki constants for several of these mutants are 4 to 8 times the value for the native enzyme in strain 2123-12. From shake flask studies it is apparent that decreased sensitivity to glucosamine-6-P allows higher glucosamine levels to accumulate.
These values are slightly higher than those obtained with the native enzyme.

Where a chain is given by its changes, count along the chain named. In names and notes the source's numbering stands.

T1 sequence (P17169 2-609 A39T/R250C/G472S): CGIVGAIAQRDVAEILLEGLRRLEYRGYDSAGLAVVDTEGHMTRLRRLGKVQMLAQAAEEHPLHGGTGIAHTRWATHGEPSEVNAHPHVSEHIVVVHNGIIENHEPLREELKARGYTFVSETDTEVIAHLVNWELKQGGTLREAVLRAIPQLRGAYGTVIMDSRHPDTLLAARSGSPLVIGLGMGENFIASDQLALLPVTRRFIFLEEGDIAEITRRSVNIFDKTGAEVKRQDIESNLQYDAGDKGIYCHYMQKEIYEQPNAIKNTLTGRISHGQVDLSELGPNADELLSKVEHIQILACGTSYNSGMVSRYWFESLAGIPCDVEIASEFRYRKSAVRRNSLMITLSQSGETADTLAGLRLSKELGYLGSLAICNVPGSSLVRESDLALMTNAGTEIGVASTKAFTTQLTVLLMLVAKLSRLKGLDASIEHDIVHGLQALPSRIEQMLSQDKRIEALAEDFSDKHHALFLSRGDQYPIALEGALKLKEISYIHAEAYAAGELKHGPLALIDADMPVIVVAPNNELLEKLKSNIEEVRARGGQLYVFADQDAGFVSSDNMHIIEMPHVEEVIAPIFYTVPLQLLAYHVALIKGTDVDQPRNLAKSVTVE

Molecule `CC(=O)N[C@H]1C(OP(=O)(O)O)O[C@H](CO)[C@@H](O)[C@@H]1O` (some centres unmarked) [N-acetylglucosamine-1-P, N-acetylglucosamine-1-phosphate] showed an activity at 10000 µM in data set [1] of 100%.
Take `N[C@H]1C(OP(=O)(O)O)O[C@H](CO)[C@@H](O)[C@@H]1O` (some centres unmarked) [glucosamine-1-P, glucosamine-1-phosphate]: in data set [1], the activity at 10000 µM stood at 79% and the “inhibition of glucosamine synthetase (in words)” value was “inhibited”.

B1: E. coli GlmS mutant GlmS*124, SEQ ID NO:8 (Leu469Pro) (strain 2123-124) (Escherichia coli K-12; L469P) (protein)
chain: CGIVGAIAQRDVAEILLEGLRRLEYRGYDSAGLAVVDAEGHMTRLRRLGKVQMLAQAAEEHPLHGGTGIAHTRWATHGEPSEVNAHPHVSEHIVVVHNGIIENHEPLREELKARGYTFVSETDTEVIAHLVNWELKQGGTLREAVLRAIPQLRGAYGTVIMDSRHPDTLLAARSGSPLVIGLGMGENFIASDQLALLPVTRRFIFLEEGDIAEITRRSVNIFDKTGAEVKRQDIESNLQYDAGDKGIYRHYMQKEIYEQPNAIKNTLTGRISHGQVDLSELGPNADELLSKVEHIQILACGTSYNSGMVSRYWFESLAGIPCDVEIASEFRYRKSAVRRNSLMITLSQSGETADTLAGLRLSKELGYLGSLAICNVPGSSLVRESDLALMTNAGTEIGVASTKAFTTQLTVLLMLVAKLSRLKGLDASIEHDIVHGLQALPSRIEQMLSQDKRIEALAEDFSDKHHAPFLGRGDQYPIALEGALKLKEISYIHAEAYAAGELKHGPLALIDADMPVIVVAPNNELLEKLKSNIEEVRARGGQLYVFADQDAGFVSSDNMHIIEMPHVEEVIAPIFYTVPLQLLAYHVALIKGTDVDQPRNLAKSVTVE
notes: made in house; host or cells: E. coli strain 2123-124, cell extract
In the case of B1, in data set [2], the Km was 1100 µM.

B2: E. coli GlmS mutant GlmS*72, SEQ ID NO:14 (Glu15Lys, Asp387Val, Ser450Pro, Glu525Gly) (strain 2123-72) (Escherichia coli K-12; D387V/E15K/E525G/S450P) (protein)
chain: B1 chain with E14K, D386V, S449P, P468L, E524G
notes: made in house; host or cells: E. coli strain 2123-72 (from 7101-17(DE3), plasmid with glmS*72 integrated), cell extract
In the case of B2, the Km in data set [2] stood at 950 µM.

A word on the Km: it is the concentration of substrate that gives half-maximal velocity.

The values above are taken from patent US8124381B2, “Process and materials for production of glucosamine and N-acetylglucosamine” (Arkion Life Sciences, priority 2002, dated 2012).
